Read-outs that look alike come from different tables or passages of the source.
Columns and labels:
RVV-V [1] = target: T1, RVV-V (Daboia siamensis, UniProt P18965); settings: two-state fit
Experimental: The Russel viper venom was purchased from Irula Snake-Catchers Industrial Cooperative Society (ISCICS), Tamil Nadu, India. The RVV-V was purified as described by Shiffman et al., with some changes. Lyophilized Crude venom (100 mg) was dissolved in 1 ml of 50 mM Sodium Acetate buffer (pH 5.5). The solution was centrifuged at 12,000 rpm for 10 minutes at 4°C and the supernatant was loaded to Sephadex S-100 column (FPLC). Peaks containing the RVV-V were pooled and loaded for CM Sepharose FFCation Exchange (Pharmacia) column (equilibrated with 50 mM sodium acetate buffer pH 5.5). Proteins were eluted with 50mM Na-acetate buffer with gradient 0 to 1 M Sodium Chloride. The fractions of RVV-V were pooled, dialyzed in 50 mM sodium-acetate buffer, and concentrated. Further, the binding kinetics was performed for RVV-V with both the peptides (purchased from Genei™) by SPR method.
The SPR is a well-known primary protein-ligand screening method for the measurement of a real-time, label-free detection of biomolecular interactions like protein-peptide, antibody-antigen, and protein-DNA interactions. A small amount of protein is sufficient and the affinity data are more accurate as the recorded Sensorgram is time-dependent and a continuous flow system. In the experiment the ligand is saturated with an immobilized protein followed by washing, and the association constant (Ka), and the dissociation constant (Kd) are obtained from the binding response data. Biacore T200 optical biosensor was used to get the interaction kinetics of RVV-V with the peptides. The purified RVV-V (concentration of 50 μg/ml in 50 mM sodium acetate buffer, pH 5.5) was immobilized on CM5 chip by amine-coupling method. A constant flow rate of 10μl/min was used to activate the surface of the flow cell for 7 min using a 1:1 mixture of 100 mM N-hydroxysuccinimide (NHS) and 100 mM N-ethyl-N-(dimethylaminopropyl)-carbodiimide (EDC) dissolved in water. The RVV-V was injected for 7 min, and the non-activated carboxy methyl groups on the surface were blocked by 7 min injection of 1 M ethanolamine (pH 8.5) and totally 3000 RU of the RVV-V were immobilized on the chip.
Biacore control software was used for obtaining all data by monitoring the change in the refractive index as a function of time at a flow rate of 30 μl/min. A relative quantity of peptide bound to RVV-V was quantified by calculating the amount of net increase in the refractive index over a period as compared to the initial buffer (PBS) response. The inline subtraction is performed during each run. Before changing each peptide and the peptide-concentration, the surface of the sensor chips was washed by running the buffer (PBS) and the chip was regenerated by injecting 10 mM glycine pH 2.5 for 30 sec. The association and the dissociation times are 120 and 300 sec respectively. For both the peptides, the experiment was performed by changing the concentration of the peptides ranging from 62.5 uM to 1 mM.

RVV-V [2] = target: T1, RVV-V; settings: ref [16], [17]; cited from earlier work
From the text: In general, serine proteases are robust and highly sensitive for the cleavage sites; they contain catalytic triad or diad in the active site. […] Both these proteins are active against different molecular substrates. The molecular structure and the catalytic triad arrangement of the RVV-V are analogous with that of the thrombin.

Factor V = settings: sites I, II and III of FV; ref [11]; cited from earlier work
From the text: Factor V (FV) is a well-studied large protein, consists of six domains, involved in the blood coagulation cascade. […] Both the proteins cleave the FV at three different sites of FV viz., site I (Arg709–Ser710), site II (Arg1018–Thr1019), and site III (Arg1545–Ser1546). Highly glycosylated B domain of FV is removed by these proteases to achieve an active form of FV.

[3] = test system: fibrinogen, prothrombin, factor VIII, and FX; settings: ref [14], [15]; cited from earlier work
From the text: (§1) Both these proteins are active against different molecular substrates.

[4] = ref [16], [17]; cited from earlier work
From the text: as §1

T1 sequence (P18965 25-260): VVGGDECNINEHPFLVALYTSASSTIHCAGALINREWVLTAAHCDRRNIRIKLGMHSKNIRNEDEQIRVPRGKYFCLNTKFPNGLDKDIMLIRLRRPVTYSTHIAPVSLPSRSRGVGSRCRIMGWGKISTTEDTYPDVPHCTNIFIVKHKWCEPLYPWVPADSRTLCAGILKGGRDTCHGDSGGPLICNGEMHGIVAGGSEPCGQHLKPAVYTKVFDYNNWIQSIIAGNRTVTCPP

1008KHTHHAPLSPRTFHP1022 [Peptide II]
ka1 (RVV-V [1]; Biacore T200, RVV-V immobilized on CM5 chip (amine coupling, 3000 RU), PBS, 30 μl/min, peptide 62.5 uM to 1 mM, association 120 s, dissociation 300 s): 760.4 M⁻¹ s⁻¹ | Kd1 (RVV-V [1]; Biacore T200, RVV-V on CM5 chip, PBS, peptide 62.5 uM to 1 mM, dissociation rate constant of first step): 2.414 s⁻¹ | kd2 (RVV-V [1]; Biacore T200, RVV-V on CM5 chip, PBS, peptide 62.5 uM to 1 mM, second step): 0.001942 s⁻¹ | ka2 (RVV-V [1]; Biacore T200, RVV-V on CM5 chip, PBS, peptide 62.5 uM to 1 mM, second step (conformational change)): 0.0002809 s⁻¹ | kd1 (RVV-V [1]; first (unstable) complex): 2.414 s⁻¹ | ka1 (RVV-V [1]; first reaction): 760.4 M⁻¹ s⁻¹ | kd2 (RVV-V [1]; second (more stable) complex): 0.001942 s⁻¹ | ka2 (RVV-V [1]; second reaction): 0.0002809 s⁻¹

O=C(O)CN(CCN(CC(=O)O)CC(=O)O)CC(=O)O [EDTA]
response of RVV-V to serine protease inhibitor (RVV-V [2]): no response

Russell’s viper venom factor V activator [RVV-V]
cleavage of FV sites (Factor V): cleaving the site III and does not cleave the other two thrombin-susceptible sites | effect on structure or activity after prolonged incubation [3]: no effect | amidase activity [4]: weak amidase activity
